Results as given in article PMC8861638, “Human iPSC-derived renal organoids engineered to report oxidative stress can predict drug-induced toxicity” (iScience, 2022).
Where “and” joins values, the source holds several entries; their conditions need not be identical. Identical values can stand only once. Like-named read-outs stand apart in the source and are kept apart here. Each block holds one molecule with its values, some of them ahead of it.

Tests used:
[1] = test system: HO1-mCherry-hiPSC-derived flat renal organoids; assay: Blind-coded screen, mCherry fluorescence of HMOX1 reporter in flat organoids
Description: (§1) H O 1-mCherry-hiPSC renal organoids (both flat and 3D) were incubated in a 4-fold dilution series of each compound for either 24 h or 72 h. Data on reporter expression are shown graphically in Figure 5.
(§2) A four-fold dilution series of each blinded compound (lyophilized, obtained from the Gothenburg authors) was prepared and HO1-mCherry-hiPSC-derived renal organoids (flat and 3D) were incubated in these dilutions for either 24h or 72h (Figure 5). A no-treatment control was included for each compound, time-point and organoid type (flat or 3D). 24h flat organoids were cultured in 4 x wells of a 24-well plate; 72h flat organoids in wells of a 96-well plate and 3D organoids on transwell inserts.
(§3) Fluorescence measurements were taken after 24h or 72h. Each live organoid was imaged either 5 times with 4 replicates (flat organoids, 24h), once with 10 replicates (flat organoids, 72h), once with 3 replicates (3D organoids, 24h) or 3 times with 3 replicates (3D organoids, 72h). Organoids were imaged using a Zeiss Axiovert microscope with Axiovision software. All images used for fluorescence intensity analysis were taken with identical exposures and settings. All images were analysed using ImageJ. The total fluorescence intensity of the image was multiplied by the total area with a signal between 600 (lower threshold) and 4096 (higher threshold), where 0 is completely black and 4096 is completely white. Thus, only signal above a certain threshold is measured in order to discount very dark areas with no cells.
(§4) In graphs, a single star indicates a p value of the null hypothesis being true of less than 0.05, two stars a p value of less than 0.01 and 3 stars a p value of less than 0.001. Calculation of the overall performance of the assay (in the Discussion section) was performed by calculating the Wilson Score Interval method ([Newcombe, 1998]).

[2] = test system: HO1-mCherry-hiPSC-derived 3D renal organoids; assay: Blind-coded screen, mCherry fluorescence of HMOX1 reporter in 3D organoids
Description: as §1, §2, §3, §4

[3] = test system: flat and 3D HO1-mCherry-hiPSC-derived organoids; assay: HMOX1 qPCR in the blind-coded screen, flat and 3D organoids, 24h; assay type: cell-based, human; settings: highest concentration 384µM
Description: A one-way ANOVA on repeated measures was performed. […]
mCherry insertion without hydrogen peroxide treatment. B) Single mCherry-positive cells were sorted into each well of 96-well plates as shown in the right panel to isolate clonal populations. Negative (wild type) cells are shown in the left panel. C) Diagram of the primers designed for verifying cassette insertion into the hiPSC genome. D) PCR products using primer pair 1 and 4 shown in C) - endogenous […]
Figure S5. HMOX1 expression in flat and 3D HO1-mCherry-hiPSC-derived flat and 3D organoids by qPCR fold-change analysis, Related to Figure 6.
HMOX1 expression fold-change compared to vehicle control in flat (white) and 3D […]

[4] = test system: hiPSC-derived renal organoids; assay type: cell-based, human
Excerpt: We also stained drug-treated organoids for HMOX1 together with LTL and COL IV (Figure S3A), or JAG1 (Figure S3B), to test whether the response is localized to a specific cell type in the organoid. […] The general increase in HMOX1 expression in response to the toxic drugs, rather than specific response in proximal tubular cells, the primary site of toxicity of both drugs, could be due to the availability of the drug to all cell types of the organoid through the media in contrast to what happens in vivo where these drugs filter through the glomeruli then specifically accumulate inside the proximal tubular cells, through apical uptake pathways, where most of their toxic effect is seen.
The culture medium was aspirated, cells washed once in PBS, then fixed in 4% PFA in PBS for 15 minutes at room temperature, followed by three PBS washes of 3 min each. Cells were permeabilised and blocked for 1 hour (2% BSA, 0.3% Triton x100 in PBS). Cells were washed in PBS and incubated with primary antibodies overnight at 4 °C. Cells were washed in PBS (3x, 15 min) and incubated with secondary antibodies for 2 hrs at room temperature. Cells were washed in PBS (3x, 15 minutes) before imaging in PBS in the wells. Images were taken using a Zeiss Axiovert fluorescence microscope. […]

[5] = test system: hiPSC-derived flat renal organoids; assay: RNA-seq of wild-type hiPSC-derived flat renal organoids treated with gentamicin for 24 h; assay type: cell-based, human
Excerpt: Although some transporters were more strongly expressed in the 3D organoids, the presence of Megalin and Cubulin in the flat organoids, combined with their increased suitability for high-throughput analyses, led us to adopt this form of organoid to identify a potential reporter for toxic insults in renal organoids. hiPSCs were differentiated into flat renal organoids, and their renal identity was verified by confirming expression of common renal markers (as described above and in the Methods section). We treated these flat renal organoids for 24 h with the known nephrotoxicant, gentamicin ([Regec et al., 1986], [1989]; [El Mouedden et al., 2000]), at 1 or 4 mg/mL, leaving some as vehicle-only controls (3 separate organoids per condition). Gentamicin was chosen based on the presence of Megalin and Cubulin in these organoids because they are the main endocytic receptors involved in gentamicin uptake into proximal tubule cells ([Schmitz et al., 2002]) and would be expected to be necessary for a realistic toxic response. The transcriptomes of renal organoids in these three conditions were compared using RNA-seq analyses.
In contrast, treatment with 4 mg/mL gentamicin caused the expression of 2,221 genes to increase and that of 1770 to decrease. Among the transcripts showing increased expression was KIM-1 (log fold-change: 1.67; FDR-corrected p = 0.03), a biomarker commonly associated with renal tubular necrosis (Table S1).
RNA-seq, and trimming, filtering and normalization of raw data, was performed by Edinburgh Genomics. 1 μg of total RNA/sample was used for sequencing library preparation using an Illumina TruSeq stranded mRNA kit. Sequencing was performed using a Novaseq S1 50 Paired-end run to produce 50–64 million read-pairs per sample. Reads were trimmed using Cutadapt and were aligned to the Homo sapiens reference genome (GRCh38; from Ensembl) using STAR. […] Reads were assigned to features of type ‘exon’ in the input annotation grouped by gene_id in the reference genome using Feature Counts. […] Reads were normalised using the weighted trimmed mean of M-values method. […]

[6] = test system: HO1-mCherry-hiPSC-derived flat renal organoids; assay: Verification of reporter response in flat organoids to known nephrotoxicants (fluorescence, qPCR); assay type: cell-based, human; settings: increasing amounts of compound
Description: Total RNA was isolated from organoids using the Qiagen RNeasy mini kit. Flat organoids were dissociated and processed as per the kit protocol. 3D organoids were lysed using the lysis buffer provided in the kit and then passed through a needle to fully dissociate before continuing with the kit protocol. RNA was stored at −80 °C until use. cDNA for qPCR was prepared using 2μg RNA and cDNA for RT-PCR was prepared using 1μg of RNA. All cDNA was quality-controlled by PCR using intron-spanning primers for β-actin on cDNA, prepared with or without reverse transcriptase (primers in Table S4). RT-PCRs for OAT1 (SLC22A6) and OCT2 (SLC22A2) were carried out in multiplex reactions with primers for β-actin as loading controls (primers in Table S4). qPCRs on undifferentiated and flat organoids for HMOX1 with HPRT1 as internal control were performed using TaqMan reagents as per published protocols (Applied Biosystems, assay nos. in Table S4). For qPCRs in the blind-coded screen, quality-controlled cDNA was provided by the Edinburgh authors to the Gothenburg authors. […] The reaction was prepared via Beckman NX and measured on Applied Biosystems QuantStudio 7 Real-Time PCR System.Technical triplicates served to calculate CT mean for each gene. The ΔCT between the target gene and the mean CT of the two reference genes was calculated for each biological replicate. […]

[7] = test system: undifferentiated HO1-mCherry-hiPSCs; settings: 0, 125, or 250 μM for 24 h
Description: RNA was stored at −80 °C until use. cDNA for qPCR was prepared using 2μg RNA and cDNA for RT-PCR was prepared using 1μg of RNA. […] 12 ng of cDNA was utilized for each qPCR reaction. TaqMan gene expression assays (Applied Biosystems, TaqMan Gene Expression FAST Master Mix) were performed on HMOX1 and house-keeping genes HPRT and RPLP0. The reaction was prepared via Beckman NX and measured on Applied Biosystems QuantStudio 7 Real-Time PCR System.Technical triplicates served to calculate CT mean for each gene. The ΔCT between the target gene and the mean CT of the two reference genes was calculated for each biological replicate. The mean ΔCT of biological triplicates was normalized to untreated sample resulting in 2^ΔΔCT. […] A one-way ANOVA on repeated measures was performed. Significant fold-change was established by Dunnett's multiple comparisons test.

[8] = flat organoids, 24 h and 72 h, 4-fold dilution series
[9] = 3D organoids, 24 h and 72 h, 4-fold dilution series

Reporter fluorescence response compared to vehicle control ([1]; flat organoids, 24 h): no significant response
Reporter fluorescence response compared to vehicle control ([2]; 3D organoids, 24 h): showed a response after 24 h treatment
Reporter fluorescence response compared to vehicle control ([2]; 3D organoids, 72 h): not after 72 h
Structure (SMILES): Nc1ccn(C[C@@H](CO)OCP(=O)(O)O)c(=O)n1 [Cidofovir]
Prediction of toxicity by increase in fluorescence intensity ([1]; Flat 24h): N
Prediction of toxicity by increase in fluorescence intensity ([1]; Flat 72h): Y
Reporter fluorescence response compared to vehicle control ([1]; flat organoids, 72 h): elicited a response at even the lowest concentration tested
Prediction of toxicity by increase in fluorescence intensity ([2]; 3D 24h): Y
Prediction of toxicity by increase in fluorescence intensity ([2]; 3D 72h): N

Structure (SMILES): N.N.[Cl][Pt][Cl] [Cisplatin]
Reporter fluorescence response compared to vehicle control [1]: significant increase in fluorescence
Reporter fluorescence response compared to vehicle control [2]: significant increase in fluorescence
Tubular structure of treated organoids [2]: distinct loss of tubular structure
Cell death (no cDNA obtained) [3]: massive cell death
HMOX1 expression by immunostaining [4]: HMOX1 expression increased

Structure (SMILES): C[C@@H]1C[C@H]2[C@@H]3CCC4=CC(=O)C=C[C@]4(C)[C@@]3(F)[C@@H](O)C[C@]2(C)[C@@]1(O)C(=O)CO [Dexamethasone]
Prediction of toxicity by increase in fluorescence intensity ([1]; Flat 24h): N
Prediction of toxicity by increase in fluorescence intensity ([1]; Flat 72h): N
Reporter fluorescence response compared to vehicle control [1, 8]: none of the concentrations produced a signal statistically different
Prediction of toxicity by increase in fluorescence intensity ([2]; 3D 24h): N
Prediction of toxicity by increase in fluorescence intensity ([2]; 3D 72h): N
Prediction of toxicity, combination of 24 and 72 h (Boolean OR) ([2]; 3D organoids): did not predict toxicity
Reporter fluorescence response compared to vehicle control [2, 9]: none of the concentrations produced a signal statistically different

Log2FC HMOX1 ([5]; 4 mg/mL vs control, 24 h): 6.552 and 6.55
Expression of CLU in RNA-seq ([5]; data not shown): not up-regulated
Expression of NGAL in RNA-seq ([5]; data not shown): downregulated
Low concentration to which organoids responded (fluorescence) ([1]; human, 24 h): 2 4 μM
Tubular structure of treated organoids [2]: maintained their tubular structures
Low concentration to which organoids responded (fluorescence) ([2]; human, 24 h): 6 µM
HMOX1 expression by immunostaining ([4]; human): HMOX1 expression increased
Structure (SMILES): CNC(C)C1CCC(N)C(OC2C(N)CC(N)C(OC3OCC(C)(O)C(NC)C3O)C2O)O1 (stereo not drawn) [Gentamicin]
Prediction of toxicity by increase in fluorescence intensity [2]: Y
mCherry fluorescence intensity (fold-change relative to vehicle control) [6]: increased in a dose-dependent manner

Structure (SMILES): O=P1(NCCCl)OCCCN1CCCl (stereo not drawn) [Ifosfamide]
Prediction of toxicity by increase in fluorescence intensity ([1]; Flat 24h): Y
Prediction of toxicity by increase in fluorescence intensity ([1]; Flat 72h): Y
Reporter fluorescence response compared to vehicle control [1, 8]: significant fluorescence increase
Prediction of toxicity by increase in fluorescence intensity ([2]; 3D 24h): Y
Prediction of toxicity by increase in fluorescence intensity ([2]; 3D 72h): Y
Reporter fluorescence response compared to vehicle control [2, 9]: significant fluorescence increase

Structure (SMILES): CC(C(=O)O)c1cccc(C(=O)c2ccccc2)c1 (stereo not drawn) [Ketoprofen]
Prediction of toxicity by increase in fluorescence intensity ([1]; Flat 24h): Y
Prediction of toxicity by increase in fluorescence intensity ([1]; Flat 72h): Y
Reporter fluorescence response compared to vehicle control [1, 8]: significant response in the flat cultures at the two highest concentrations
Prediction of toxicity by increase in fluorescence intensity ([2]; 3D 24h): N
Prediction of toxicity by increase in fluorescence intensity ([2]; 3D 72h): N
Reporter fluorescence response compared to vehicle control ([2]; 3D organoids, 72 h): only at the highest concentration after 72 h

Structure (SMILES): COc1ccc(C[C@H](N)C(=O)N[C@H]2[C@@H](O)[C@H](n3cnc4c(N(C)C)ncnc43)O[C@@H]2CO)cc1 [Puromycin]
Reporter fluorescence response compared to vehicle control ([1]; human): significant rise in fluorescence after both 24 and 72 h
Reporter fluorescence response compared to vehicle control ([2]; human): significant rise in fluorescence after both 24 and 72 h

Structure (SMILES): OO [hydrogen peroxide]
HMOX1 transcripts by qPCR [7]: increase in HMOX1 transcripts
mCherry fluorescence [7]: increased in a dose-dependent manner
